Measured values taken from patent US10517889B2, “Modulators of SMAD7 expression” (Ionis Pharmaceuticals, Inc., priority 2017, dated 2019).
Strand notation (5' to 3'): a small letter for the sugar, then the base; units joined by * are phosphorothioate-linked, units joined directly phosphodiester-linked; [ ] holds rarer units or linkages, { } end groups; capitals alone tell only the bases. k = constrained ethyl (cEt); [5mC] = 5-methylcytosine; d = 2'-deoxy (DNA)

Each substance was assayed on human SMAD7 mRNA (assay: Antisense inhibition of human SMAD7 mRNA expression in Hep3B cells by 3-10-3 cEt gapmers, 10,000 nM, electroporation (Example 2)). Settings: Hep3B cells, 10,000 nM antisense oligonucleotide, electroporation, approximately 24 hours, RT-PCR primer probe set RTS5062, relative to untreated control cells.
Assay type: cell-based
Procedure: Antisense oligonucleotides were designed to target human SMAD7 mRNA and were tested for their effects on SMAD7 mRNA expression in vitro. The antisense oligonucleotides were tested in a series of experiments that had similar culture conditions, as described below. ION 771576, described in the studies above and which is a 5-10-5 MOE gapmer, was also included in these assays. Cultured Hep3B cells at a density of 20,000 cells per well were transfected using electroporation with 10,000 nM antisense oligonucleotide. After a treatment period of approximately 24 hours, RNA was isolated from the cells and SMAD7 mRNA levels were measured by quantitative real-time PCR. Primer probe set RTS5062 was used to measure human SMAD7 mRNA levels. SMAD7 mRNA levels were adjusted according to total RNA content, as measured by RIBOGREEN®. Results are presented as percent inhibition of SMAD7 mRNA expression, relative to untreated control cells.
The newly designed chimeric antisense oligonucleotides in the Tables below were designed as 3-10-3 cEt gapmers. The gapmers are 16 nucleosides in length, wherein the central gap segment comprises often 2′-deoxynucleosides and is flanked by wing segments on the 5′ direction and the 3′ direction comprising three nucleosides each. Each nucleoside in the 5′ wing segment and each nucleoside in the 3′ wing segment has a cEt sugar modification. The internucleoside linkages throughout each gapmer are phosphorothioate (P═S) linkages. All cytosine residues throughout each gapmer are 5-methylcytosines.
“Start site” indicates the 5′-most nucleoside to which the gapmer is targeted in the human gene sequence. “Stop site” indicates the 3′-most nucleoside to which the gapmer is targeted human gene sequence. […] Some of the oligonucleotides presented were complementary to SMAD7 mRNA sequences RefSeqNo. NM_001190821.1 (designated herein as SEQ ID NO: 3) or RefSeqNo. NM_001190822.1 (designated herein as SEQ ID NO: 4), and are presented in a separate table shown below.

“790847 (kT*k[5mC]*kT*dT*dA*d[5mC]*dA*dA*dA*dG*dA*dG*dT*kT*kA*kT; antisense) [compound 790847]” was tested, and the “% Inhibition” value was 24%.

Same assay, conditions: Hep3B cells, electroporation with 10,000 nM antisense oligonucleotide, approximately 24 hours, RTS5062, percent inhibition of SMAD7 mRNA relative to untreated control cells

For “790715 (kT*kG*kT*d[5mC]*dA*d[5mC]*d[5mC]*d[5mC]*dG*dT*d[5mC]*dT*dG*kG*kG*k[5mC]; antisense) [compound 790715]”, the “% Inhibition” value was 16%.

Same assay, conditions: Hep3B cells, electroporation with 10,000 nM antisense oligonucleotide, approximately 24 hours, SMAD7 mRNA by RT-PCR (RTS5062), relative to untreated control cells

Point of comparison: “798671 (antisense kA*kG*k[5mC]*dG*dG*d[5mC]*dG*dG*d[5mC]*dG*dG*d[5mC]*d[5mC]*k[5mC]*kG*kA) [compound 798671]”, “% Inhibition” value 61%. Against it:
- 798664 (kG*kG*k[5mC]*d[5mC]*dT*dG*d[5mC]*dG*d[5mC]*dT*d[5mC]*d[5mC]*dG*kG*k[5mC]*kT; antisense) [compound 798664] — lower, 7%
- 798665 (k[5mC]*kA*kG*dT*d[5mC]*dT*d[5mC]*d[5mC]*d[5mC]*dG*dG*dA*dG*kG*k[5mC]*k[5mC]; antisense) [compound 798665] — lower, 7%
- 798666 (k[5mC]*kA*kT*dG*d[5mC]*dG*d[5mC]*d[5mC]*dA*dG*dT*d[5mC]*dT*k[5mC]*k[5mC]*k[5mC]; antisense) [compound 798666] — lower, 33%
- 798667 (kT*kG*kG*d[5mC]*dA*dT*dG*d[5mC]*dG*d[5mC]*d[5mC]*dA*dG*kT*k[5mC]*kT; antisense) [compound 798667] — lower, 21%
- 798668 (kT*k[5mC]*k[5mC]*dG*dT*dG*dG*d[5mC]*dA*dT*dG*d[5mC]*dG*k[5mC]*k[5mC]*kA; antisense) [compound 798668] — lower, 45%
- 798669 (k[5mC]*kG*k[5mC]*dT*d[5mC]*d[5mC]*dG*dT*dG*dG*d[5mC]*dA*dT*kG*k[5mC]*kG; antisense) [compound 798669] — lower, 0%
- 798670 (kG*kG*k[5mC]*dG*dG*d[5mC]*dG*dG*d[5mC]*d[5mC]*d[5mC]*dG*dA*kG*kG*kG; antisense) [compound 798670] — lower, 44%
- 798678 (antisense k[5mC]*kG*k[5mC]*dA*d[5mC]*dA*d[5mC]*d[5mC]*dA*dT*dG*dA*dA*kG*kA*kA) [compound 798678] — lower, 45%
- 798679 (antisense k[5mC]*kT*k[5mC]*d[5mC]*dG*d[5mC]*dA*d[5mC]*dA*d[5mC]*d[5mC]*dA*dT*kG*kA*kA) [compound 798679] — lower, 32%
- 798680 (antisense k[5mC]*kA*kT*dG*dA*d[5mC]*d[5mC]*dT*d[5mC]*d[5mC]*dG*d[5mC]*dA*k[5mC]*kA*k[5mC]) [compound 798680] — lower, 31%
- 798681 (antisense kG*kA*kA*d[5mC]*dA*dT*dG*dA*d[5mC]*d[5mC]*dT*d[5mC]*d[5mC]*kG*k[5mC]*kA) [compound 798681] — lower, 29%
- 798682 (antisense kG*k[5mC]*kT*dA*dA*dG*dG*dA*dG*d[5mC]*dG*dA*dA*k[5mC]*kA*kT) [compound 798682] — lower, 60%
- 798683 (antisense kG*k[5mC]*k[5mC]*dT*dG*d[5mC]*dT*dA*dA*dG*dG*dA*dG*k[5mC]*kG*kA) [compound 798683] — lower, 51%
- 798684 (antisense k[5mC]*kG*kT*dT*dT*dG*d[5mC]*d[5mC]*dT*dG*d[5mC]*dT*dA*kA*kG*kG) [compound 798684] — lower, 51%

Same assay, conditions: Hep3B cells, electroporation with 10,000 nM antisense oligonucleotide, approximately 24 hours, primer probe set RTS5062, relative to untreated control cells

Point of comparison: “798673 (antisense kG*kG*k[5mC]*d[5mC]*d[5mC]*dG*dG*dG*d[5mC]*dA*dG*dG*dA*kG*k[5mC]*kG) [compound 798673]”, “% inhibition of SMAD7 mRNA expression” value 15%. Against it:
- 798654 (k[5mC]*k[5mC]*k[5mC]*dT*dG*d[5mC]*dG*d[5mC]*dG*dG*d[5mC]*dT*d[5mC]*kT*k[5mC]*k[5mC]; antisense) [compound 798654] — higher, 23%
- 798655 (kG*kG*k[5mC]*d[5mC]*d[5mC]*dG*d[5mC]*dG*d[5mC]*d[5mC]*d[5mC]*dT*dG*k[5mC]*kG*k[5mC]; antisense) [compound 798655] — higher, 21%
- 798656 (k[5mC]*kG*k[5mC]*dG*dG*d[5mC]*d[5mC]*d[5mC]*dG*d[5mC]*dG*d[5mC]*d[5mC]*k[5mC]*kT*kG; antisense) [compound 798656] — lower, 10%
- 798657 (k[5mC]*k[5mC]*kG*d[5mC]*dG*d[5mC]*dG*dG*d[5mC]*d[5mC]*d[5mC]*dG*d[5mC]*kG*k[5mC]*k[5mC]; antisense) [compound 798657] — lower, 0%
- 798658 (kA*k[5mC]*k[5mC]*d[5mC]*d[5mC]*dG*d[5mC]*dG*d[5mC]*dG*dG*d[5mC]*d[5mC]*k[5mC]*kG*k[5mC]; antisense) [compound 798658] — higher, 71%
- 798659 (k[5mC]*k[5mC]*k[5mC]*dA*d[5mC]*d[5mC]*d[5mC]*d[5mC]*dG*d[5mC]*dG*d[5mC]*dG*kG*k[5mC]*k[5mC]; antisense) [compound 798659] — higher, 58%
- 798660 (kT*kG*k[5mC]*d[5mC]*d[5mC]*d[5mC]*dA*d[5mC]*d[5mC]*d[5mC]*d[5mC]*dG*d[5mC]*kG*k[5mC]*kG; antisense) [compound 798660] — higher, 38%
- 798661 (kG*kG*k[5mC]*dT*dG*d[5mC]*d[5mC]*d[5mC]*d[5mC]*dA*d[5mC]*d[5mC]*d[5mC]*k[5mC]*kG*k[5mC]; antisense) [compound 798661] — higher, 52%
- 798663 (kT*kG*k[5mC]*dG*d[5mC]*dT*d[5mC]*d[5mC]*dG*dG*d[5mC]*dT*dG*k[5mC]*k[5mC]*k[5mC]; antisense) [compound 798663] — higher, 41%
- 798672 (antisense kG*kG*k[5mC]*dA*dG*dG*dA*dG*d[5mC]*dG*dG*d[5mC]*dG*kG*k[5mC]*kG) [compound 798672] — lower, 6%
- 798674 (antisense k[5mC]*kA*kG*dG*d[5mC]*dG*dA*d[5mC]*dA*dG*d[5mC]*dA*dG*k[5mC]*kA*kG) [compound 798674] — higher, 39%
- 798675 (antisense k[5mC]*kA*kG*dG*d[5mC]*dG*d[5mC]*dA*dG*dG*d[5mC]*dG*dA*k[5mC]*kA*kG) [compound 798675] — higher, 51%
- 798676 (antisense k[5mC]*k[5mC]*kA*dT*dG*dA*dA*dG*dA*dA*dG*dT*d[5mC]*kG*kG*kG) [compound 798676] — higher, 21%
- 798677 (antisense kA*k[5mC]*kA*d[5mC]*d[5mC]*dA*dT*dG*dA*dA*dG*dA*dA*kG*kT*k[5mC]) [compound 798677] — higher, 36%
- 798685 (antisense kG*kA*kG*dG*d[5mC]*dG*dA*dG*dG*dA*dG*dA*dA*kA*kA*kG) [compound 798685] — higher, 58%

Same assay, conditions: Hep3B cells, electroporation, 10,000 nM antisense oligonucleotide, approximately 24 hours, RTS5062, relative to untreated control cells

For “790719 (kG*kG*kA*d[5mC]*dA*dG*dT*d[5mC]*dT*dG*d[5mC]*dT*dG*kT*kG*kG; antisense) [compound 790719]”, the “% inhibition of SMAD7 mRNA expression” value was 86%.

Same assay, conditions: SMAD7 mRNA, Hep3B cells, 10,000 nM antisense oligonucleotide, electroporation, approximately 24 hours, primer probe set RTS5062, relative to untreated control cells

Point of comparison: “790855 (kA*k[5mC]*k[5mC]*dT*dT*dT*dT*d[5mC]*d[5mC]*dG*dG*dT*dA*kT*kT*kT; antisense) [compound 790855]”, “% Inhibition” value 40%. Against it:
- 790741 (kA*kT*kT*dA*dA*dG*d[5mC]*d[5mC]*d[5mC]*dG*d[5mC]*dT*d[5mC]*kT*k[5mC]*kA; antisense) [compound 790741] — lower, 30%
- 790747 (kG*kT*kA*d[5mC]*dA*dA*dT*d[5mC]*dT*d[5mC]*d[5mC]*dT*dG*kG*kA*kA; antisense) [compound 790747] — lower, 8%
- 790754 (k[5mC]*kT*kA*dA*dG*d[5mC]*dT*dA*d[5mC]*dT*dT*dG*dG*kT*kT*kT; antisense) [compound 790754] — lower, 38%
- 790775 (kT*kA*k[5mC]*dA*dA*dG*dG*dT*dG*dA*dA*dA*dG*kT*kT*kA; antisense) [compound 790775] — lower, 7%
- 790791 (kG*kG*kG*d[5mC]*dA*d[5mC]*dA*d[5mC]*d[5mC]*dA*d[5mC]*d[5mC]*dT*kG*k[5mC]*k[5mC]; antisense) [compound 790791] — lower, 7%
- 790871 (kT*kG*kT*dT*dA*dG*dG*dA*d[5mC]*d[5mC]*dT*dG*dG*kG*kA*kA; antisense) [compound 790871] — lower, 39%
- 790874 (k[5mC]*k[5mC]*kG*dG*dA*dA*dG*dT*d[5mC]*dT*dT*dG*dT*kA*kT*kT; antisense) [compound 790874] — lower, 0%
